Like-named read-outs stand apart in the source and are kept apart here.
What was measured:
[1] = tested on: phosphorylation of CaMKii at T286 in Panc1 cells; assay: CaMKii phosphorylation in Panc1 cell line (Western blot); format: cell-based; conditions: 0.2 μM and 1 μM, 48 hours (FIG. 5)
Protocol: Panc1 (a pancreatic cancer cell line) cells (˜5-8 millions) were seeded in 10 cm dishes (or ˜2 millions in 6 cm dishes) and treated next day with prostratin (K-101, 0.2 μM and 1 μM) or 0.02 μM and […] of K101-C1347, -C134801, and -C134802 for 48 hours. Cells were then collected/lysed for Western blot analysis. Protein quantification, SDS-PAGE, and Western blot procedures were performed as described in Example 65, except that a different lysis buffer (1 ml of 10×TNE [20 mL 1M Tris pH7.5; 30 mL 5M NaCl; 2 mL 0.5M EDTA; 48 mL d2H2O], 1 ml of 10% NP40, 7.7 mL of dH2O, 100 μL of 10× Protease inhibitors, 100 μL of 10× Phosphatase inhibitors, and 10 μl DTT) was used. To assess the effect of diterpenoid compounds on CaMKii phosphorylation, a phospho-specific antibody P-CaMKii (T286) (Abcam, cat #32678) was used for detection. Phosphorylation of CaMKii at T286 is a marker for activation of CaMKii kinase in the Wnt/Ca^2+ signaling pathway when […] and thus a downstream marker for inhibition of K-Ras stemness (Wang et al., Cell. 2015, 163(5):1237-51).

[2] = tested on: A549 non-small cell lung cancer cell line; assay: Proliferation of A549 (CellTiter Glo); format: cell-based; conditions: Homo sapiens, read-out: IC50 μM (A549 Cell Line)
Summary of the method: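 A549 cells (K-Ras mutant) seeded 1,000/well, 24 h at 37° C, then treated with 3-fold serial dilutions (final DMSO ≤0.25%) for 96 h. Viability by CellTiter Glo luminescence; % inhibition vs DMSO-only Max, curve-fit to give IC50, relative IC50 and % top inhibition.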

[3] = tested on: Panc2.13 (Pancreatic) cell line; assay: Proliferation of Panc2.13; format: cell-based; conditions: for IC50: read-out: IC50 in μM Panc2.13 (Pancreatic); for ratio of (IC50 of K01)/(IC50 of compound), Panc2.13: value in parenthesis
Protocol: (§1) The diterpenoid compounds were tested in A549, a non-small cell lung cancer cell line harboring a K-Ras activating mutation. Briefly, A549 cells at a density of 1,000 cells/well were seeded in 96-well plates and incubated at 37° C. for 24 hours. A series of different concentrations of compound stocks (500×) were prepared by 3-fold serial dilution in DMSO. These compounds were further diluted in culture media and then added to cells so that the final DMSO concentration was not exceeding 0.25%. After 96 hours of incubation, 50 μL of CellTiter Glo reagent (Promega) was added to each well and luminescence was measured after 10 minutes using EnVision (PerkinElmer). Luminescence from cells treated with DMSO alone was set as Max and % of inhibition was calculated as follows: Inhibition %=(Max−Sample value)/Max×100. Data was analyzed using XL-fit software (ID Business Solutions Ltd.) and IC50, relative IC50, and % of top inhibition was calculated. Some of the compounds in this disclosure were very potent in blocking proliferation of A549 lung cancer cells at low nM range. In addition, potency of inhibiting A549 proliferation correlated well with its binding affinity to PKCs for this series of compounds. In other words, higher affinity binders had stronger inhibitory effects on A549 proliferation. This further support the notion that activation, rather than inhibition, of certain PKC isoforms is required to block proliferation of cancer cells, some of which may harbor K-Ras mutations. This is in sharp contrast to previous literature and common belief that inhibition of PKC is necessary to block cancer cell growth (Kang, 2014, New Journal of Science, 2014:1-36). Data presented here is in agreement with recent findings that many loss-of-function but not gain-of-function mutations of PKC isoforms have been identified in many human cancers (Antal et al., 2015, Cell, 160:489-502).
(§2) The compounds in this disclosure were tested for their potency in blocking proliferation of a few other cancer cells lines, including K-Ras mutant pancreatic cell lines Panc2.13 and KP-4, leukemia cell line HL-60, and lymphoma cell lines Namalwa and Mino. Similar procedures as in Example 67 were followed. Initial cell numbers seeded in 96-well plates were different for different cell lines: 3000 cells/well for Panc2.13; 800-1000 cells/well for KP-4; 5000 cells/well for HL-60; 5000-10000 cells/well for Namalwa and Mino. A ratio ratio of (IC50 of K01)/(IC50 of compound) (data in parenthesis in Table 5) was used to normalize the compound potency from different assay batches to a common comparator […].

[4] = tested on: KP-4 (Pancreatic) cell line; assay: Proliferation of KP-4; format: cell-based
Protocol: as §1, §2

[5] = tested on: HL-60 (Leukemia) cell line; assay: Proliferation of HL-60; format: cell-based
Protocol: as §1, §2

[6] = tested on: Namalwa (Lymphoma) cell line; assay: Proliferation of Namalwa; format: cell-based; conditions: for IC50: read-out: IC50 in μM Namalwa (Lymphoma); for ratio of (IC50 of K01)/(IC50 of compound), Namalwa: value in parenthesis
Protocol: as §1, §2

[7] = tested on: Mino (Lymphoma) cell line; assay: Proliferation of Mino; format: cell-based
Protocol: as §1, §2

[8] = tested on: PANC1 cells; assay: Sphere formation assay (cancer stemness); format: cell-based; conditions: Homo sapiens, PANC-1, read-out: concentration exhibiting at least 50% inhibition on the sphere forming efficiency
Protocol: A group of diterpenoid compounds of the present disclosure were tested to assess their effects on blocking formation of spheres from cancer cell lines such as PANC1, a K-Ras mutant pancreatic cell line. Briefly, PANC1 cells were harvested, re-suspended as single cell suspensions, counted and seeded into Ultra Low Attachment Culture 96-well plate (Corning, Cat #3474) at 100 cells/well in 100 μl of complete media (with 10% FBS) containing 2% Matrigel (Corning, Cat #354234) and DMSO or compounds. Six replicates per condition were seeded. The seeded cells were placed in the 37° C. tissue culture incubator. 10 μl of low serum containing media (with 0.1% FBS) was added to each well every week. Spheres formed after 3-4 weeks were counted. Sphere forming efficiency was expressed as percentage of # of spheres/# of cells seeded.

[9] = target: T1, C1b domain of human PKCδ (Homo sapiens, UniProt Q05655); assay: Competitive 3H-PDBu binding to C1b domain of PKCδ; conditions: Ki PKCδ, 3H-PDBu competition
T1 construct: Genes encoding C1b domains of human PKCα, δ, ε, θ, and PKD1 (PKCμ) were synthesized; made in house; host or cells: E. coli BL21(DE3)
Summary of the method: (§3)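 Affinity was measured by competition with the radiotracer 3H-PDBu for recombinant human GST-C1b fusion proteins expressed in E. coli BL21(DE3). Incubation ran 10 minutes at 37° C with shaking, then 20 minutes on ice, and filter-trapped 3H-PDBu was counted by scintillation. IC50 values were converted to Ki by Cheng-Prusoff using the experimentally determined Kd for each protein preparation.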

[10] = target: T2, C1b domain of human PKCα (Homo sapiens, UniProt P17252); assay: biochemical; format: binding; conditions: 3H-PDBu competition; for Ki: Ki PKCα
T2 construct: Genes encoding C1b domains of human PKCα, δ, ε, θ, and PKD1 (PKCμ) were synthesized; made in house; host or cells: E. coli BL21(DE3)
Summary of the method: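 Competitive binding against 3H-PDBu tracer used recombinant GST-C1b fusion protein expressed in E. coli. Incubation ran 10 min at 37°C with shaking, then 20 min on ice, followed by filtration and scintillation counting of trapped 3H-PDBu. Affinity was derived using each protein preparation's experimentally determined Kd for 3H-PDBu.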

[11] = target: T3, C1b domain of human PKCθ (Homo sapiens, UniProt Q04759); assay: Competitive 3H-PDBu binding to C1b domain of PKCθ
T3 construct: Genes encoding C1b domains of human PKCα, δ, ε, θ, and PKD1 (PKCμ) were synthesized; made in house; host or cells: E. coli BL21(DE3)
T3 sequence (Q04759 231-281 limits assumed): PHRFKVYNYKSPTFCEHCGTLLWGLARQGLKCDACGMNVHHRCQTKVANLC
Summary of the method: as §3

[12] = target: T4, C1b domain of human PKCε (Homo sapiens, UniProt Q02156); assay: Competitive 3H-PDBu binding to C1b domain of PKCε
T4 construct: Genes encoding C1b domains of human PKCα, δ, ε, θ, and PKD1 (PKCμ) were synthesized; made in house; host or cells: E. coli BL21(DE3)
Summary of the method: as §3

[13] = target: T5, C1b domain of human PKD1 (PKCμ) (Homo sapiens, UniProt Q15139); assay: biochemical; format: binding
T5 construct: Genes encoding C1b domains of human PKCα, δ, ε, θ, and PKD1 (PKCμ) were synthesized; made in house; host or cells: E. coli BL21(DE3)
T5 sequence (Q15139 270-320 limits assumed): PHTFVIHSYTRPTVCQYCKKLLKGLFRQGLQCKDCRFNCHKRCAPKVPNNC
Summary of the method: as §3

[14] = tested on: phosphorylation of PKCμ, PKCδ and Erk1/2 in A549 lung cancer cells; format: cell-based; conditions: 0.3 μM, 30 minutes, Western blot (FIG. 1)
Protocol: Cells were then treated with different drugs at indicated concentrations for 30 minutes. […] Imagequant LAS4000 (GE) was used to scan membranes if secondary antibodies anti-mouse IgG HRP conjugate or anti-rabbit IgG HRP conjugate (dilutions from 1:2000-1:10000) were used. For ProteinSimple Wes system, manufacture's procedure was followed (ProteinSimple 12-230 kDa Wes Separation Module) for sample preparation, loading, running, and data analysis.
Phosphorylation of these sites has been linked to acute activation or catalytic activity of the PKC isoforms and Erk1/2. High level of phosphorylation indicates strong activation.

[15] = Homo sapiens, KP-4, read-out: IC50 in μM KP-4 (Pancreatic)
[16] = Homo sapiens, HL-60, read-out: IC50 in μM HL-60 (Leukemia)
[17] = Homo sapiens, MINO, read-out: IC50 in μM Mino (Lymphoma)

T1 sequence (Q05655 230-280 limits assumed): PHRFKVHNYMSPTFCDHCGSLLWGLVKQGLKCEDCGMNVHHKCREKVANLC
T4 sequence (Q02156 242-292 limits assumed): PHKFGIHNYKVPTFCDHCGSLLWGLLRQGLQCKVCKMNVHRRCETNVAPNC

SMILES	IC50 [3]	IC50 [6]	Ki [9]	Ki [10]	Ki [11]	Ki [12]	Ki [13]	IC50 ([2]; A549, 96 h)	ratio of (IC50 of K01)/(IC50 of compound), Panc2.13 [3]	IC50 [4, 15]	ratio of (IC50 of K01)/(IC50 of compound), HL-60 ([5]; HL-60; value in parenthesis)	IC50 [5, 16]	ratio of (IC50 of K01)/(IC50 of compound), Namalwa [6]	IC50 [7, 17]	ratio of (IC50 of K01)/(IC50 of compound), Mino ([7]; Mino; value in parenthesis)	IC50 [8]	phosphorylation of PKC (PKD/PKCμ), PKCδ and Erk1/2 [14]	also measured
CC(=O)O[C@@]12C[C@@H](C)[C@@]3(O)[C@@H](C=C(CO)C[C@]4(O)C(=O)C(C)=C[C@@H]34)[C@@H]1C2(C)C [Compound K101, prostratin, reference compound]	0.6 to 1 µM	0.06 to 0.1 µM	–	–	–	–	–	–	–	–	–	–	–	–	–	–	–	phosphorylation of CaMKii at T286 [1]: induced phosphorylation of CaMKii at T286; IC50 ([2]; A549, 96 hours incubation, CellTiter Glo): 0.03 to 0.06 µM; IC50 ([4]; Homo sapiens, KP-4; read-out: IC50 in μM KP-4 (Pancreatic)): 0.2 to 0.6 µM; IC50 ([5]; Homo sapiens, HL-60; read-out: IC50 in μM HL-60 (Leukemia)): 0.2 to 0.6 µM; IC50 ([7]; Homo sapiens, MINO; read-out: IC50 in μM Mino (Lymphoma)): 0.06 to 0.1 µM; IC50 ([8]; PANC1 single cell suspension, spheres counted after 3-4 weeks): ≤ 500 nM
CC1=C[C@H]2[C@@]3(O)[C@H](C)C[C@]4(OC(=O)C(C)(C)C)[C@H]([C@@H]3C=C(CO)C[C@]2(O)C1=O)C4(C)C [Compound K101-C1308]	0.1 to 0.2 µM	0.03 to 0.06 µM	1 to 30 nM	800 to 1000 nM	30 to 60 nM	1 to 30 nM	5 to 10 nM	0.06 to 0.1 µM	6.29	0.1 to 0.2 µM	5.29	0.06 to 0.1 µM	1.38	0.01 to 0.03 µM	6.82	≤ 150 nM	–	–
CC1=C[C@H]2[C@@]3(O)[C@H](C)C[C@]4(OC(=O)[C@@H](N)CCCc5ccccc5)[C@H]([C@@H]3C=C(CO)C[C@]2(O)C1=O)C4(C)C [Compound K101-C1319]	0.2 to 0.6 µM	0.03 to 0.06 µM	< 5 nM	–	5 to 10 nM	30 to 60 nM	< 5 nM	0.06 to 0.1 µM	3.65	0.1 to 0.2 µM	1.79	0.03 to 0.06 µM	1.53	0.01 to 0.03 µM	6	≤ 1500 nM	induced high levels of phosphorylation	Ki PKCα [10]: E (E=>60 nM and ≤10 nM)
CC1=C[C@H]2[C@@]3(O)[C@H](C)C[C@]4(OC(=O)[C@@H](N)C5Cc6ccccc6C5)[C@H]([C@@H]3C=C(CO)C[C@]2(O)C1=O)C4(C)C [Compound K101-C1329]	0.1 to 0.2 µM	0.03 to 0.06 µM	< 5 nM	30 to 60 nM	5 to 10 nM	1 to 30 nM	< 5 nM	0.06 to 0.1 µM	5.82	0.06 to 0.1 µM	1.79	0.03 to 0.06 µM	1.6	0.01 to 0.03 µM	5.5	≤ 150 nM	induced high levels of phosphorylation	–
CC1=C[C@H]2[C@@]3(O)[C@H](C)C[C@]4(OC(=O)[C@@H](N)CCC5CCCCC5)[C@H]([C@@H]3C=C(CO)C[C@]2(O)C1=O)C4(C)C [Compound K101-C1345]	0.03 to 0.06 µM	0.001 to 0.01 µM	< 5 nM	30 to 60 nM	1 to 30 nM	1 to 30 nM	< 5 nM	0.01 to 0.03 µM	20.5	0.01 to 0.03 µM	27.7	0.01 to 0.03 µM	7.42	0.001 to 0.01 µM	33	≤ 150 nM	–	–
CC1=C[C@H]2[C@@]3(O)[C@H](C)C[C@]4(OC(=O)[C@@H](N)C(C)(C)C)[C@H]([C@@H]3C=C(CO)C[C@]2(O)C1=O)C4(C)C [Compound K101-C1346]	–	–	1 to 30 nM	200 to 400 nM	30 to 60 nM	–	5 to 10 nM	0.2 to 0.6 µM	–	–	–	–	–	–	–	≤ 1500 nM	–	–
